Earlier results on 3 compounds are cited in patent publication US20240148037A1, “STEVIOL GLYCOSIDE FORMULATIONS FOR FOOD AND BEVERAGES” (SWEEGEN, INC., priority 2019, published 2024).

The conditions of the data set: relative to sucrose.
Regarding Rebaudioside C, the “times sweeter than sucrose” value is 40-60 times.
Regarding `C=C1C[C@@]23CC[C@H]4[C@@](C)(CCC[C@@]4(C)C(=O)O[C@@H]4O[C@H](CO)[C@@H](O)[C@H](O)[C@H]4O)[C@@H]2CC[C@]1(O[C@@H]1O[C@H](CO)[C@@H](O)[C@H](O)[C@H]1O[C@@H]1O[C@@H](C)[C@H](O)[C@@H](O)[C@H]1O)C3` [Dulcoside A], the “times sweeter than sucrose” value is recorded as “about 30 times”.
`C=C1C[C@@]23CC[C@H]4[C@@](C)(CCC[C@@]4(C)C(=O)O[C@@H]4O[C@H](CO)[C@@H](O)[C@H](O)[C@H]4O)[C@@H]2CC[C@]1(O[C@@H]1O[C@H](CO)[C@@H](O)[C@H](O)[C@H]1O[C@@H]1O[C@H](CO)[C@@H](O)[C@H](O)[C@H]1O)C3` [stevioside]: the “times sweeter than sucrose” value is 100-150 times.
